# Measured values reported in patent US8889391B1 (Cargill, Incorporated, priority 2006, dated 2014).
# Like-named read-outs stand apart in the source and are kept apart here.
# Assays:
# [1] = test system: BAAT (BAAT5-9) in E. coli 11303 Δpta ΔadhE ΔfrdABCD ΔldhA Δpan(C-D) ΔpoxB INT(BAAT5-9/PpmmsB31) carrying pCEC/SapanD; assay: microbe, parasite or virus in culture; settings: for inhibition at 20000 µM / inhibition at 100000 µM: Escherichia coli
# Experimental: A culture of E. coli 11303 Δpta ΔadhE ΔfrdABCD ΔldhA Δpan(C-D) ΔpoxB INT(BAAT5-9/PpmmsB31) carrying the vector pCEC/SapanD was grown in LB media with chloramphenicol at 30° C. This culture was used to inoculate 20 mL modified Overnight Express media (Novagen) to an initial OD600 of 0.05 in a 125 mL flask. Modification to the media included the replacement of Solution 1 with glucose at a concentration of 0.1% and arabinose at 2%, and addition of 20 uM Ca^2+ pantothenate, 25 ug/mL chloramphenicol, 100 uM pyridoxine-HCl and 1 mM IPTG. […] Glucose biotransformation medium consisted of M9 salts, 100 mM MOPS pH 8, 1% glucose, 500 uM IPTG, and 50 uM pyridoxine-HCl.
# For aerobic biotransformations, 900 uL of the resuspended culture was aliquoted to a 14 mL Falcon tube and the volume was brought to 1 mL with water and/or sodium acetate (pH 7). For anaerobic biotransformations, 1.35 mL of the resuspended culture was aliquoted to a 1.8 mL glass vial and the volume was brought to 1.5 mL with water and/or sodium acetate(pH 7). Final concentrations of sodium acetate added were 0, 20 mM, and 100 mM, and biotransformation incubations were at 30° C. with shaking at 225 rpm. […] Culture supernatants were acidified with 0.05 volumes of 90% formic acid, centrifuged, filtered, and analyzed for 3-HP production as described in Example 8.
# [2] = target: BAAT-3-HP dehydrogenase system: Streptomyces avermitilis BAAT variant BAAT5-9 (P3H, S24T, D110N, F113L, A133T), SEQ ID NO: 19, coupled with P. putida 3-HP dehydrogenase (PpmmsB31), SEQ ID NO: 27 (Streptomyces avermitilis, UniProt Q82ER2, D110N/F113L/P3H/S24T); assay: biochemical; settings: pH 8, read-out: reduction of activity of the BAAT-3-HP dehydrogenase system
# Experimental: The effect of acetate on the in vitro biological activity of BAAT enzymes in cell extracts was also measured using a coupled assay in which the malonyl semialdehyde product of the reaction catalyzed by BAAT was reduced by a 3-HP dehydrogenase. An extract of cells carrying the integrated BAAT5-9/PpmmsB31 was made by resuspending cells collected by centrifugation with Bugbuster (EMD/Novagen, Madison Wis.) as described by the manufacturer. […] The progress of the reaction was monitored as the decrease in A340 due to oxidation of the NADH. The effect of acetate or pyruvate was determined by adding up to 20 mM of either compound (as the neutral Na^+ salt).
# [3] = test system: O=CCC(=O)O; assay: purified protein, by the assay type; settings: other: purified enzyme; NADH is the preferred reductant
# [4] = substrate: NCCC(=O)O; assay: purified protein, by the assay type; assay type: biochemical, Streptomyces avermitilis; settings: other: pH 8.0, 10 mM alpha-ketoglutarate, 25° C.
# Experimental: Incubations were carried out at 25° C., and aliquots of 0.05 mL were removed at intervals of 30 seconds and added to 0.15 mL of reaction quench buffer (50% formic acid/50% 50 mM HEPPS pH 8). L-glutamate was determined by high-pressure ion exchange chromatography on an AMINOSep-511 column (Transgenomic) developed using mobile phases of pH 3.28 and pH 7.48 buffers from Pickering, followed by post-column derivatization with O-phthalaldehyde and fluorometric detection.
# [5] = substrate: NCCC(=O)O; assay: purified protein, by the assay type; settings: other: pH 8.0, 10 mM alpha-ketoglutarate, 25° C.
# [6] = substrate: O=CCC(=O)O; assay: ydfG dehydrogenase kinetics, purified enzyme; assay type: biochemical, E. coli; settings: other: purified enzyme; NADPH is the only cofactor used; 58.0 °C
# Experimental: The ydfG gene was cloned into the pET28b vector (Novagen, Madison, Wis.) to allow purification and kinetic studies on purified protein. The primers used for this cloning had restriction sites added to allow cloning into NdeI and BamHI sites. […] (SEQ ID NO: 32) and […] (SEQ ID NO: 33). Fragment amplification was performed using Pfu DNA polymerase to minimize amplification errors, and used an annealing temperature of 58° C. A PCR product band of approximately 750 bp was gel-purified, digested with NdeI and BamHI, and ligated, using an NEB Quick Ligation method (New England BioLabs, Waverly Mass.), into pET28B vector that had been digested with the same enzymes. The ligation reaction was transformed into E. coli Electromax™ DH10B™ cells and plated on LB medium containing 25 μg/ml kanamycin. Plasmid DNA from a colony showing the correct insert size was sequenced and shown to be identical to the ydfG sequence from E. coli MG1655.
# [7] = read-out: reduction in 3-HP from beta-alanine
# [8] = read-out: reduction in 3-HP from glucose
molecule,measurement,setting,value
CC(=O)O [acetate],inhibition at 20000 µM,[1]; [7],22%
same,inhibition at 100000 µM,[1]; [7],47%
same,inhibition at 20000 µM,[1]; [8],28%
same,inhibition at 100000 µM,[1]; [8],52%
same,reduction in 3-HP,"[1]; anaerobic conditions, acetate added (20 mM and 100 mM)",8-29%
same,inhibition at 10000 µM,[2],~50%
CC(=O)C(=O)O [pyruvate],inhibition at 10000 µM,[2],~50%
"Pseudomonas aeruginosa 3-HP dehydrogenase (PammsB), SEQ ID NO: 21 (Pseudomonas aeruginosa PAO1)",Km,[3],4.5 mM
"Streptomyces avermitilis BAAT variant BAAT3ML (P3H, S24T, F113L, A133T), SEQ ID NO: 17 (Streptomyces avermitilis MA-4680 = NBRC 14893; F113L/P3H/S24T) (protein) MTHQPNPQVGAAVKAADRAHVFHTWSAQELIDPLAVAGAEGSYFWDYDGRRYLDFTSGLVFTNIGYQHPKVVAAIQEQAASLTTFAPAFAVEARSEAARLIAERTPGDLDKILFTNGGADAIEHAVRMARIHTGRPKVLSAYRSYHGGTQQAVNITGDPRRWASDSASAGVVHFWAPYLYRSRFYAETEQQECERALEHLETTIAFEGPGTIAAIVLETVPGTAGIMVPPPGYLAGVRELCDKYGIVFVLDEVMAGFGRTGEWFAADLFDVTPDLMTFAKGVNSGYVPLGGVAISGKIAETFGKRAYPGGLTYSGHPLACAAAVATINVMAEEGVVENAANLGARVIEPGLRELAERHPSVGEVRGVGMFWALELVKDRETREPLVPYNAAGEANAPMAAFGAAAKANGLWPFINMNRTHVVPPCNVTEAEAKEGLAALDAALSVADEYTV",Km,[4],21 mM
"Streptomyces avermitilis BAAT variant BAAT1 (S24T), SEQ ID NO: 6 (Streptomyces avermitilis MA-4680 = NBRC 14893; S24T) (protein) MTPQPNPQVGAAVKAADRAHVFHTWSAQELIDPLAVAGAEGSYFWDYDGRRYLDFTSGLVFTNIGYQHPKVVAAIQEQAASLTTFAPAFAVEARSEAARLIAERTPGDLDKIFFTNGGADAIEHAVRMARIHAGRPKVLSAYRSYHGGTQQAVNITGDPRRWASDSASAGVVHFWAPYLYRSRFYAETEQQECERALEHLETTIAFEGPGTIAAIVLETVPGTAGIMVPPPGYLAGVRELCDKYGIVFVLDEVMAGFGRTGEWFAADLFDVTPDLMTFAKGVNSGYVPLGGVAISGKIAETFGKRAYPGGLTYSGHPLACAAAVATINVMAEEGVVENAANLGARVIEPGLRELAERHPSVGEVRGVGMFWALELVKDRETREPLVPYNAAGEANAPMAAFGAAAKANGLWPFINMNRTHVVPPCNVTEAEAKEGLAALDAALSVADEYTV",Km,[4],7.3 mM
"Streptomyces avermitilis BAAT variant BAAT5-9 (P3H, S24T, D110N, F113L, A133T), SEQ ID NO: 19 (Streptomyces avermitilis MA-4680 = NBRC 14893; … (protein) MTHQPNPQVGAAVKAADRAHVFHTWSAQELIDPLAVAGAEGSYFWDYDGRRYLDFTSGLVFTNIGYQHPKVVAAIQEQAASLTTFAPAFAVEARSEAARLIAERTPGDLNKILFTNGGADAIEHAVRMARIHTGRPKVLSAYRSYHGGTQQAVNITGDPRRWASDSASAGVVHFWAPYLYRSRFYAETEQQECERALEHLETTIAFEGPGTIAAIVLETVPGTAGIMVPPPGYLAGVRELCDKYGIVFVLDEVMAGFGRTGEWFAADLFDVTPDLMTFAKGVNSGYVPLGGVAISGKIAETFGKRAYPGGLTYSGHPLACAAAVATINVMAEEGVVENAANLGARVIEPGLRELAERHPSVGEVRGVGMFWALELVKDRETREPLVPYNAAGEANAPMAAFGAAAKANGLWPFINMNRTHVVPPCNVTEAEAKEGLAALDAALSVADEYTV",Km,[4],25 mM
"Streptomyces avermitilis beta-alanine/alpha-ketoglutarate aminotransferase (BAAT), wild type, SEQ ID NO: 4 (Streptomyces avermitilis MA-4680 = NBRC 14893) (protein) MTPQPNPQVGAAVKAADRAHVFHSWSAQELIDPLAVAGAEGSYFWDYDGRRYLDFTSGLVFTNIGYQHPKVVAAIQEQAASLTTFAPAFAVEARSEAARLIAERTPGDLDKIFFTNGGADAIEHAVRMARIHAGRPKVLSAYRSYHGGTQQAVNITGDPRRWASDSASAGVVHFWAPYLYRSRFYAETEQQECERALEHLETTIAFEGPGTIAAIVLETVPGTAGIMVPPPGYLAGVRELCDKYGIVFVLDEVMAGFGRTGEWFAADLFDVTPDLMTFAKGVNSGYVPLGGVAISGKIAETFGKRAYPGGLTYSGHPLACAAAVATINVMAEEGVVENAANLGARVIEPGLRELAERHPSVGEVRGVGMFWALELVKDRETREPLVPYNAAGEANAPMAAFGAAAKANGLWPFINMNRTHVVPPCNVTEAEAKEGLAALDAALSVADEYTV",Km,[5],2.5 mM
"Streptomyces avermitilis BAAT variant BAAT3 (S24T, F113L, A133T), SEQ ID NO: 12 (Streptomyces avermitilis MA-4680 = NBRC 14893; F113L/S24T) (protein) MTPQPNPQVGAAVKAADRAHVFHTWSAQELIDPLAVAGAEGSYFWDYDGRRYLDFTSGLVFTNIGYQHPKVVAAIQEQAASLTTFAPAFAVEARSEAARLIAERTPGDLDKILFTNGGADAIEHAVRMARIHTGRPKVLSAYRSYHGGTQQAVNITGDPRRWASDSASAGVVHFWAPYLYRSRFYAETEQQECERALEHLETTIAFEGPGTIAAIVLETVPGTAGIMVPPPGYLAGVRELCDKYGIVFVLDEVMAGFGRTGEWFAADLFDVTPDLMTFAKGVNSGYVPLGGVAISGKIAETFGKRAYPGGLTYSGHPLACAAAVATINVMAEEGVVENAANLGARVIEPGLRELAERHPSVGEVRGVGMFWALELVKDRETREPLVPYNAAGEANAPMAAFGAAAKANGLWPFINMNRTHVVPPCNVTEAEAKEGLAALDAALSVADEYTV",Km,[4],14.7 mM
"E. coli ydfG protein, SEQ ID NO: 31 (Escherichia coli K-12) (protein) MIVLVTGATAGFGECITRRFIQQGHKVIATGRRQERLQELKDELGDNLYIAQLDVRNRAAIEEMLASLPAEWCNIDILVNNAGLALGMEPAHKASVEDWETMIDTNNKGLVYMTRAVLPGMVERNHGHIINIGSTAGSWPYAGGNVYGATKAFVRQFSLNLRTDLHGTAVRVTDIEPGLVGGTEFSNVRFKGDDGKAEKTYQNTVALTPEDVSEAVWWVSTLPAHVNINTLEMMPVTQSYAGLNVHRQ",Km,[6],3.7 mM
